Measurements published in patent US20070026478A1, “Hemiasterlin affinity probes and their uses” (WYETH, priority 2002, published 2007).
Where “and” joins values, the source holds several entries; their conditions need not be identical. Identical values can stand only once. Like-named read-outs stand apart in the source and are kept apart here. Marks after values point to notes of the source that are not given here.

Key:
[1] = biological target: microtubule associated protein (MAP)-rich bovine brain tubulin (bovine) (UniProt P81947)
[2] = biological target: microtubule associated protein (MAP)-rich bovine brain tubulin (bovine) (UniProt P81947); assay: reversible binding to bovine brain tubulin (range given in Table 1)
[3] = biological target: α-tubulin of bovine brain tubulin (bovine) (UniProt P81947); assay: 1 mM HTI-286 against 2.5 µM [3H]-Probe 1 photolabeling, fluorography
[4] = biological target: microtubule associated protein (MAP)-rich bovine brain tubulin (bovine) (UniProt P81947); assay: 100 µM HTI-286 against 0.25 µM [3H]-Probe 1 photolabeling of tubulin, 37° C.
[5] = biological target: microtubule associated protein (MAP)-rich bovine brain tubulin (bovine) (UniProt P81947); assay: 100 µM HTI-286 against 0.25 µM [3H]-Probe 1 photolabeling of tubulin, room temperature
[6] = biological target: microtubule associated protein (MAP)-rich bovine brain tubulin (bovine) (UniProt P81947); assay: 100 µM HTI-286 against 0.25 µM [3H]-Probe 2 photolabeling of tubulin, room temperature
bovine brain tubulin [7] = biological target: T1, bovine brain tubulin (Bos taurus, UniProt P81947+Q6B856); assay: Competition of [3H]-Probe 1 photolabeling of tubulin; type: binding; conditions: for Probe 1 photolabeling of tubulin (% of no-competitor control): control (no competitor) = 100; for IC50: read-out: IC50 for inhibition of Probe 1 photolabeling of tubulin
T1 construct: MAP-rich bovine brain tubulin (99% purity), Hela cell tubulin (90% purity); purchased Cytoskeleton (Denver, Colo.); host or cells: bovine brain
Procedure: (§1) Alternatively, a cytosolic preparation of KB-3-1 cell lysates (50 μg) or KB-3-1 cells (40,000 cells) were used in the place of purified tubulin above. The supernatant of mechanically disrupted cells centrifuged at 100,000×g was used as a cytosolic preparation. K-3-1 cells were prepared by growing KB-3-1 cells in a 96-well plate and rinsing them with serum free medium.
If whole cells were used, Laemmli sample buffer was then added to lyse the cells.
Low grade SDS (Sigma, catalog No. L5750) was used in the running buffer, when needed, to allow separation of α and β-tubulin subunits. Gels were fixed, stained with Coomassie blue from BioRad (Hercules, Calif.) to ensure equal loading of protein, and sliced. […] Alternatively, gels were incubated with EN^3HANCE according to the manufacturer's instructions (Life Sciences Products, Inc.), washed, and dried prior to exposure of the gel to Biomax MX film from Kodak (Rochester, N.Y.) for fluorography.
After incubation for 30 minutes at 37° C., samples were irradiated with 360 nm UV light for 30 minutes and separated by SDS-PAGE. Gels were exposed to film using fluorographic techniques.
In particular, photolabeling experiments were performed as described in section 7.1.5 above, at both room temperature and at 37° C.

tubulin [8] = biological target: T2, tubulin (Bos taurus, UniProt P81947+Q6B856); assay: Competition of [3H]-Probe 2 photolabeling of tubulin; type: binding, bovine
T2 construct: MAP-rich bovine brain tubulin (99% purity), Hela cell tubulin (90% purity); purchased Cytoskeleton (Denver, Colo.); host or cells: bovine brain
Procedure: as §1
Competition binding experiments were performed as described in Section 7.1.5. […] Samples were then irradiated for 2 hours at 4° C. and evaluated by SDS-PAGE and fluorography.

α-tubulin = biological target: T3, α-tubulin (Bos taurus, UniProt P81947+Q6B856); assay: Subtilisin digestion of tubulin after incubation with various compounds; type: biochemical, bovine; conditions: 50 μM drug, subtilisin up to 60 min at room temperature
T3 construct: MAP-rich bovine brain tubulin (99% purity), Hela cell tubulin (90% purity); purchased Cytoskeleton (Denver, Colo.); host or cells: bovine brain
Procedure: Tubulin (5 μg) was incubated with 50 μM drug at room temperature for 25 minutes and then digested under native conditions with subtilisin (0.05 μg) for 0, 5, 10, 15, 30 and 60 min at room temperature. Enzymatic digestion was stopped with 1 mM PMSF and samples were resolved by SDS-PAGE under conditions that allowed separation of α- and β-tubulin subunits. Gels were then fixed and stained with Coomassie blue.

tubulin [9] = biological target: T2, tubulin; assay: Separation of polymerized and free tubulin by centrifugation; type: biochemical, bovine; conditions: 50 μM drug, centrifugation at 10,000 g and 100,000 g
Procedure: Tubulin (5 μg) was incubated with 50 μM drug at room temperature for 25 minutes and then centrifuged at either 10,000 g for 15 minutes in a tabletop microfuge or at 100,000 g for 15 minutes in an airfuge. The supernatant was carefully removed to a fresh tube to obtain free tubulin and the pellet was solubilized in SDS-PAGE sample buffer.

[10] = biological target: microtubule associated protein (MAP)-rich bovine brain tubulin (bovine) (UniProt P81947); assay: 100 µM non-radiolabeled Probe 1 against [3H]-Probe 1, tubulin: radiolabeled probe 2.5:2.5
[11] = biological target: microtubule associated protein (MAP)-rich bovine brain tubulin (bovine) (UniProt P81947); assay: 100 µM non-radiolabeled Probe 1 against [3H]-Probe 1, tubulin: radiolabeled probe 2.5:0.25
[12] = biological target: microtubule associated protein (MAP)-rich bovine brain tubulin (bovine) (UniProt P81947); assay: 100 µM non-radiolabeled Probe 1 against 0.25 µM [3H]-Probe 1 photolabeling of tubulin, 37° C.
[13] = biological target: microtubule associated protein (MAP)-rich bovine brain tubulin (bovine) (UniProt P81947); assay: 100 µM non-radiolabeled Probe 1 against 0.25 µM [3H]-Probe 1 photolabeling of tubulin, room temperature
[14] = biological target: microtubule associated protein (MAP)-rich bovine brain tubulin (bovine) (UniProt P81947); assay: change of fluorescence of rhodamine-labeled tubulin
[15] = biological target: microtubule associated protein (MAP)-rich bovine brain tubulin (bovine) (UniProt P81947); assay: 100 µM non-radioactive Probe 2 against 0.25 µM [3H]-Probe 2 photolabeling of tubulin, room temperature
bovine brain tubulin [16] = biological target: T1, bovine brain tubulin; assay: Reversible binding affinity assay (tubulin fluorescence)
Procedure: The affinity of both HTI-286 and of non-radiolabled Probe 1 and Probe 2, to bovine brain tubulin was determined by previously published methods (Krishnamurthy et al., Biochem., submitted). Briefly, 5 mg/mL […] tubulin prepared in PEM buffer was pre-incubated with buffer or varying concentrations of test agents in individual quartz cuvettes. The intrinsic tryptophan fluorescence of tubulin (excitation at 560 nm and maximal emission at 580 nm) was measured after pre-incubation for 90 minutes. The change in fluorescence intensity at 580 nm in the presence of compound was fitted to a quadratic equation to obtain apparent dissociation constants (KD) of the test agents.

bovine MAP-rich tubulin = biological target: T4, bovine MAP-rich tubulin (Bos taurus, UniProt P81947+Q6B856); assay: Tubulin polymerization assay in a cell-free system; type: biochemical; conditions: 0.3 μM compound
T4 construct: MAP-rich bovine brain tubulin (99% purity), Hela cell tubulin (90% purity); purchased Cytoskeleton (Denver, Colo.); host or cells: bovine brain
Procedure: In vitro tubulin polymerization assays were performed according to procedures that have been described elsewhere (Loganzo et al., Cancer Res. 2003, 63:1838-1845). Briefly, bovine MAP-rich tubulin (final concentration 1.5 mg/mL) was dissolved in cold PEM buffer containing 1 mM GTP (GPEM) and centrifuged at 12,000×g for 10 minutes at 4° C. The tubulin solution (100 μL/well) was added rapidly to wells of a low-volume, 96-well plate already containing duplicate aliquots (10 μL) of test compounds in GPEM. Final compound concentrations were 0.3 μM. Control wells contained the same final concentration of DMSO (0.3%). After initiation of the reaction, absorbance at 340 nm was measured every minute for 60 minutes at 24° C. using a SpectraMax Plus plate reader (Molecular Devices, Sunnyvale, Calif.). An increase in absorbance over time indicated an increase in turbidity resulting from tubulin polymerization.

KB cells = assay: Cell proliferation assay in tissue culture (SRB); type: cell-based
Procedure: Cell proliferation studies were performed according to procedures described by Loganzo et al. (Cancer Res. 2003, 63:1838-1845). Briefly, KB cells were plated in 96-well plates in 100 μL media at densities pre-determined to produce 60-90% confluence at the time of analysis. Compounds, which were serially diluted into media as 2× stocks, were added to cells in duplicate. After 72 hours of incubation, cell survival was assayed by the SRB assay as described (Rabindran et al., C. Cancer Res. 1998, 58:5850-5858). IC50 values (i.e. the concentration of drug needed to inhibit cell growth by 50%) were used to evaluate drug potency.

[17] = Room Temp., 2.5 μM tubulin, 0.25 μM radiolabeled Probe 1, 100 μM competitor
[18] = room temperature, 400-fold molar excess (100 μM) competitor, 2.5 μM tubulin, 0.25 μM radiolabeled Probe 1
[19] = 100 μM competitor, 2.5 μM tubulin, 0.25 μM [3H]-Probe 2, room temperature
[20] = room temperature, 2.5 μM tubulin, 0.25 μM radiolabeled Probe 1

| Molecule | tubulin polymerization (% inhibition) [1] [%] | Kd [2] | Probe 1 photolabeling of tubulin (% of no-competitor control) (bovine brain tubulin [7]; 37° C., 100 μM competitor) | Probe 1 photolabeling of tubulin (% of no-competitor control) (bovine brain tubulin [7]; [17]) [%] | reduction of Probe 1 photolabeling of tubulin (bovine brain tubulin [7]; [18]) | protection of α-tubulin from subtilisin cleavage (α-tubulin) | protein recovered in pellet fractions (tubulin aggregation) (tubulin [9]) | inhibition of Probe 2 labeling of tubulin (tubulin [8]; [19]) [%] | other results |
| --- | --- | --- | --- | --- | --- | --- | --- | --- | --- |
| HTI-286 (N,β,β-trimethyl-L-phenylalanyl-N1-[(1S,2E)-3-carboxy-1-isopropylbut-2-enyl]-N1,3-dimethyl-L-valinamide trifluoroacetate) (peptide) | 87.5 | 0.4 µM and 0.8 µM | – | – | – | – | – | – | percent inhibition of Probe 1 incorporation [3]: > 50%; Inhibition (%) (labeling against control = 100) [4]: 47%; Inhibition (%) (labeling against control = 100) [5]: 27%; percent inhibition of Probe 2 labeling (so in the source) [6]: 45% |
| CC(=O)O[C@H]1C(=O)[C@@]2(C)[C@H]([C@H](OC(=O)c3ccccc3)[C@]3(O)C[C@H](OC(=O)[C@H](O)[C@@H](NC(=O)c4ccccc4)c4ccccc4)C(C)=C1C3(C)C)[C@]1(OC(C)=O)CO[C@@H]1C[C@@H]2O [Paclitaxel] | – | – | 173 ± 7% | 83 ± 41 | almost no effect | unable to cleave α-tubulin even after 60 minutes | significant amount of protein was recovered | – | enhancement of Probe 1 photolabeling of tubulin (bovine brain tubulin [7]; 37° C.): 73%; Probe 2 photolabeling, % of the control value (tubulin [8]; [19]): 113%; enhancement of Probe 2 photolabeling (tubulin [8]; higher concentrations of competitor): this effect was lost |
| CC[C@H](C)[C@@H]([C@@H](CC(=O)N1CCC[C@H]1[C@H](OC)[C@@H](C)C(=O)N[C@@H](Cc1ccccc1)c1nccs1)OC)N(C)C(=O)[C@@H](NC(=O)[C@H](C(C)C)N(C)C)C(C)C [Dolastatin-10] | – | – | 26^† % | 13 ± 3 | approximately 87% | unable to cleave α-tubulin even after 60 minutes | significant amount of protein was recovered | 27 | reduction of Probe 1 photolabeling of tubulin (bovine brain tubulin [7]; 37° C.): about 75%; IC50 (bovine brain tubulin [7]; [20]): 5 µM |
| Nc1nc2c(ncn2[C@@H]2O[C@H](COP(=O)(O)OP(=O)(O)OP(=O)(O)O)[C@@H](O)[C@H]2O)c(=O)[nH]1 [GTP, guanosine-5′-triphosphate] | – | – | – | – | – | – | – | – | effect on incorporation of Probe 1 into tubulin (bovine brain tubulin [7]; pre-incubation with between 0 and 100 μM): did not significantly inhibit incorporation |
| Probe 1 (4-benzoyl-N,β,β-trimethyl-L-phenylalanyl-N1-[(1S,2E)-3-carboxy-1-isopropylbut-2-enyl]-N1,3-dimethyl-L-valinamide) (peptide) | 88 | 0.8 µM | – | – | – | – | – | – | percent inhibition of tubulin labeling [10]: 82%; percent inhibition of tubulin labeling [11]: 93%; Inhibition (%) (labeling against control = 100) [12]: 24%; Inhibition (%) (labeling against control = 100) [13]: 12% |
| Probe 2 (N,β,β-trimethyl-L-phenylalanyl-4-benzoyl-N-[(1S,2E)-3-carboxy-1-isopropyl-2-butenyl]-N,β,β-trimethyl-L-phenylalaninamide) (peptide) | 69 | 1.1 µM and 6 µM | – | – | – | – | – | – | fold KD against HTI-286 [14]: 6 fold; percent inhibition of Probe 2 labeling (so in the source) [15]: 12% |
| CC[C@]1(O)C[C@@H]2CN(CCc3c([nH]c4ccccc34)[C@@](C(=O)OC)(c3cc4c(cc3OC)N(C)[C@H]3[C@@](O)(C(=O)OC)[C@H](OC(C)=O)[C@]5(CC)C=CCN6CC[C@]43[C@@H]65)C2)C1 [Vinblastine] | – | – | 52 ± 0.5% | 28 ± 1 | approximately 72% | unable to cleave α-tubulin even after 60 minutes | significant amount of protein was recovered | 64 | reduction of Probe 1 photolabeling of tubulin (bovine brain tubulin [7]; 37° C.): about 50%; IC50 (bovine brain tubulin [7]; [20]): 22 µM |
| CN[C@H](C(=O)N[C@H](C(=O)N(C)[C@H](/C=C(\C)C(=O)O)C(C)C)C(C)(C)c1ccc(C(=O)c2ccccc2)cc1)C(C)(C)c1ccccc1 [Probe 2, N,β,β-trimethyl-L-phenylalanyl-4-benzoyl-N-[(1S,2E)-3-carboxy-1-isopropyl-2-butenyl]-N,β,β-trimethyl-L-phenylalaninamide] | – | – | – | – | – | – | – | 12 | Kd (bovine brain tubulin [16]; Table 1, binding to bovine brain tubulin, read-out: KD): 1.1 to 6 µM; KD relative to KD of HTI-286 (bovine brain tubulin [16]; fluorescence method): approximately 6 fold; Kd (bovine brain tubulin [16]; rhodamine-labeled tubulin, 90 minutes pre-incubation, read-out: apparent binding constant (KD), fluorescence method): 3.6 µM; inhibition at 0.3 µM (bovine MAP-rich tubulin): 69%; IC50 (KB cells; 72 hours): 0.0224 ± 0.0007 µM; IC50 (KB cells; Homo sapiens, KB, 72 h): 0.022 µM |
